From patent US9586951B2 (FUJIFILM Corporation, priority 2013, dated 2017)

Columns and labels:
ATM = molecular target: T1, ATM (Homo sapiens, UniProt Q13315); test: ATM inhibition test (phosphorylation of Chk2 generated by ionizing radiation, AlphaScreen SureFire); type: cell-based; settings: phosphorylated Chk2 in NCI-H460 cells, ionizing radiation 8Gy, 1 hour after test compound treatment; read-out: ATM inhibitory activity
T1 construct: detecting phosphorylation of Chk2 in a human non-small cell lung cancer cell line NCI-H460 (ATCC company); host or cells: NCI-H460 human non-small cell lung cancer cells
In short: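 NCI-H460 cells treated with compound for 1 hour, then irradiated with 8Gy and incubated 1 hour at 37° C. Phospho-Chk2 measured by AlphaScreen SureFire. Inhibition ratio calculated relative to untreated irradiated and non-irradiated wells.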

[1] = tested on: human non-small cell lung cancer cell line NCI-H460; test: Cell proliferation inhibition test by sensitivity-enhancing to ionizing radiation (Cell Titer Glo); type: cell-based; settings: concentration in which SER became 2, NCI-H460 cells, ionizing radiation 2 Gy, cultured 120 hour
In short: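 Cells seeded at 2×10^3 cells/mL in RPMI-1640 with 10% FBS; after 24 h, compound added (0.1% DMSO), and 30 min later half the plates irradiated at 2 Gy. After 120 hour at 37° C, viability by Cell Titer Glo luminescence; SER2 is the concentration giving SER of 2 by sigmoidal fit.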

T1 sequence (Q13315 whole entry): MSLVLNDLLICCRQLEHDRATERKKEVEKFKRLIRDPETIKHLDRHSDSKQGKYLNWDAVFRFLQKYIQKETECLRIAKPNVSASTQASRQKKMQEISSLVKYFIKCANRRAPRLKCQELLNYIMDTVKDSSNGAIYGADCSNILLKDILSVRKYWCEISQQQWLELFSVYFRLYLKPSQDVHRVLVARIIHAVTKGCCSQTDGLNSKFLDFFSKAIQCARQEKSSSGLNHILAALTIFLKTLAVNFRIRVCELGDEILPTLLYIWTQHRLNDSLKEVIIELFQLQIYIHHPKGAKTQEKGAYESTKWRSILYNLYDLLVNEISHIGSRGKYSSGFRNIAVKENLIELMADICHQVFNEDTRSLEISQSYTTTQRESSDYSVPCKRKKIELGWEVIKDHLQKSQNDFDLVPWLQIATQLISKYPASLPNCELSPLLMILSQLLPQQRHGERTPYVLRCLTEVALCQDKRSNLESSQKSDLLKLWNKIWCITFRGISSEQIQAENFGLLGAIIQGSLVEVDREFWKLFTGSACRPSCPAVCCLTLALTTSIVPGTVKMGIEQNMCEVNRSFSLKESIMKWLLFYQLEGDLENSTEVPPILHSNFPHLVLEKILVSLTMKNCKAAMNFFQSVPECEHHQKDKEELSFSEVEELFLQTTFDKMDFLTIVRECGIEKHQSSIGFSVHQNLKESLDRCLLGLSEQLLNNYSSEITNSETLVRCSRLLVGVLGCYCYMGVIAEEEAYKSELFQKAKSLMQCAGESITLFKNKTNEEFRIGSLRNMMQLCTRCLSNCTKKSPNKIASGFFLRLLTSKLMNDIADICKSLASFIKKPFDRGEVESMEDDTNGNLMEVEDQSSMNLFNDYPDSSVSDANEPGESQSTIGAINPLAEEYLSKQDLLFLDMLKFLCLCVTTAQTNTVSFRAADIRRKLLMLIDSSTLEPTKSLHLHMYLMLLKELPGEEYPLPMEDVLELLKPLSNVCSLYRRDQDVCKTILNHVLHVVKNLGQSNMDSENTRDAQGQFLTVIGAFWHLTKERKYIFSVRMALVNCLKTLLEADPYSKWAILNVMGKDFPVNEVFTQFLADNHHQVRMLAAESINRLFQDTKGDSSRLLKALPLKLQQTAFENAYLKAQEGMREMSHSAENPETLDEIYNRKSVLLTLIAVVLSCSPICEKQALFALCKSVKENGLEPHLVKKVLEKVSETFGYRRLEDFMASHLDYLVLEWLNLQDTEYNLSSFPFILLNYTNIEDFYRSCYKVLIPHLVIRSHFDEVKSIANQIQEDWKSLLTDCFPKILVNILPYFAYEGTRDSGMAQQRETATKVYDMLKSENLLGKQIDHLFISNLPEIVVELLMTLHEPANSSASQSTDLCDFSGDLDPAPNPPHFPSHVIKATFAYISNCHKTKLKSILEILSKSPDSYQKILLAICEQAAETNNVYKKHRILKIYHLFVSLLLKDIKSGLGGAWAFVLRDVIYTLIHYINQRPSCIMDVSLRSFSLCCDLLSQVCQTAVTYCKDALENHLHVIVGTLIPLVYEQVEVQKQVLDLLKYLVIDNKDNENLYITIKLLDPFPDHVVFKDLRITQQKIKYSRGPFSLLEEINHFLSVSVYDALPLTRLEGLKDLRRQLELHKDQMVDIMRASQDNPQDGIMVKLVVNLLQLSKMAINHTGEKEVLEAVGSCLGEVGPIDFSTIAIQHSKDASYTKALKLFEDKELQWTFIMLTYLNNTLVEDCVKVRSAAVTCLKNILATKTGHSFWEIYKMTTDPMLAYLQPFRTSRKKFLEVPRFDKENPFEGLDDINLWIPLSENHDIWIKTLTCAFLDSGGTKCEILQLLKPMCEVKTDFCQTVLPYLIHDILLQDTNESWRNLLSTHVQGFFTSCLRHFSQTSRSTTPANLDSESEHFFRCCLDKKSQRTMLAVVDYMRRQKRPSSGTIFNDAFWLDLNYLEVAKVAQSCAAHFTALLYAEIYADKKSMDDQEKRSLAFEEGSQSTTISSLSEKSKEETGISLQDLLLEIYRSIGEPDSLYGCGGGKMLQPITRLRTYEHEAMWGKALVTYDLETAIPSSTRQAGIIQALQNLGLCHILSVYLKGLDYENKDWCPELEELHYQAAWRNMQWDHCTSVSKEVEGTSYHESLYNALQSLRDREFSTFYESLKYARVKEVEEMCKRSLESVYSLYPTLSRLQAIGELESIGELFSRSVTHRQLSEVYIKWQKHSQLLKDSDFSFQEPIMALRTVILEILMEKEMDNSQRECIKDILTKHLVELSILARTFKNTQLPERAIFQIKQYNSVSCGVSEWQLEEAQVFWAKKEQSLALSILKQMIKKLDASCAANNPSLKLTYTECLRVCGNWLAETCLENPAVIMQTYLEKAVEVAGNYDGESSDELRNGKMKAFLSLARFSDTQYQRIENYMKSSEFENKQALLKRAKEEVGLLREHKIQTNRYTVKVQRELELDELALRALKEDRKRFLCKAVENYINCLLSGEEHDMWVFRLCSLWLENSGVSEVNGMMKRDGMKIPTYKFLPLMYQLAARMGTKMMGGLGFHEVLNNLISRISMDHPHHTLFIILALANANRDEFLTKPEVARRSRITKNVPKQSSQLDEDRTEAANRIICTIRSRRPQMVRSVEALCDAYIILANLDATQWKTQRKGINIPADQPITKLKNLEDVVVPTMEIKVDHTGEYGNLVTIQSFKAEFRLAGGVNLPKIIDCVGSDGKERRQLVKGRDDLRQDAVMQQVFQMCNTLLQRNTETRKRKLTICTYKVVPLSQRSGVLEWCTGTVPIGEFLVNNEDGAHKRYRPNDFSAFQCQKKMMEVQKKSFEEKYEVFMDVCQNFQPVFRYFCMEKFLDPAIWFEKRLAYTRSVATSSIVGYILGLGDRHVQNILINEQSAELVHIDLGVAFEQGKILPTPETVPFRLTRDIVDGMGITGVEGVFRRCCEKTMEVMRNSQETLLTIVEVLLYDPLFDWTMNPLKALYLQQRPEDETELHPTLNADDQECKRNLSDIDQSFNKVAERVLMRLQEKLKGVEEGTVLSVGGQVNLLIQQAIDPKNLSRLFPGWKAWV

Row | SMILES | IC50 (ATM) [nM] | SER2 (concentration at which the radiation sensitivity-enhancement ratio reaches 2) ([1]; Homo sapiens, NCI-H460, 120 h) [nM] | SER2 (concentration at which the radiation sensitivity-enhancement ratio reaches 2) [1] [nM]
1 | COc1ccnc(CNc2ccc3c(c2)Cc2cccc(-c4cc(N5CCOCC5)cc(=O)[nH]4)c2O3)n1 [Example 2-13-8, 6-(7-(((4-Methoxypyrimidin-2-yl)methyl)amino)-9H-xanthen-4-yl)-4-morpholino pyridin-2(1H)-one] | < 100 | 500 to 2000 | –
2 | Cc1cnc(C(C)Nc2ccc3c(c2)Cc2cccc(-c4cc(N5CCOCC5)cc(=O)[nH]4)c2O3)cn1 (centres unmarked) [Example 2-14-24, 6-(7-((1-(5-Methylpyrazin-2-yl)ethyl)amino)-9H-xanthen-4-yl)-4-morpholino pyridin-2(1H)-one] | < 100 | 100 to 500 | –
3 | CN(C)c1ncc(CNc2ccc3c(c2)Cc2cccc(-c4cc(N5CCOCC5)cc(=O)[nH]4)c2O3)cn1 [Example 2-2-17, 6-(7-(((2-(Dimethylamino)pyrimidin-5-yl)methyl)amino)-9H-xanthen-4-yl)-4-morpholino pyridin-2(1H)-one] | < 100 | 500 to 2000 | –
4 | COCc1cc(CNc2ccc3c(c2)Cc2cccc(-c4cc(N5CCOCC5)cc(=O)[nH]4)c2O3)ccn1 [Example 2-21-6, 6-(7-(((2-(Methoxymethyl)pyridin-4-yl)methyl)amino)-9H-xanthen-4-yl)-4-morpholino pyridin-2(1H)-one] | < 100 | 500 to 2000 | –
5 | CCOc1cncc(CNc2ccc3c(c2)Cc2cccc(-c4cc(N5CCOCC5)cc(=O)[nH]4)c2O3)c1 [Example 2-2-48, 6-(7-(((5-Ethoxypyridin-3-yl)methyl)amino)-9H-xanthen-4-yl)-4-morpholino pyridin-2(1H)-one] | < 100 | 500 to 2000 | –
6 | O=c1cc(N2CCOCC2)cc(-c2cccc3c2Oc2ccc(NCc4cncc(-n5cccc5)c4)cc2C3)[nH]1 [Example 2-2-58, 6-(7-(((5-(1H-Pyrrol-1-yl)pyridin-3-yl)methyl)amino)-9H-xanthen-4-yl)-4-morpholino pyridin-2(1H)-one] | < 100 | 500 to 2000 | –

The next lines start with results.

Row | IC50 (ATM) [nM] | SMILES | SER2 (concentration at which the radiation sensitivity-enhancement ratio reaches 2) ([1]; Homo sapiens, NCI-H460, 120 h) [nM] | SER2 (concentration at which the radiation sensitivity-enhancement ratio reaches 2) [1] [nM]
7 | < 100 | COCC(Nc1ccc2c(c1)Sc1cccc(-c3cc(N4CCOCC4)cc(=O)[nH]3)c1S2)c1ccc(C)cn1 (centres unmarked) [Example 1-12-100, 6-(7-((2-Methoxy-1-(5-methylpyridin-2-yl)ethyl)amino)thianthren-1-yl)-4-morpholino pyridin-2(1H)-one] | < 100 | –
8 | < 100 | COc1ccc(CNc2ccc3c(c2)Sc2cccc(-c4cc(N5CCOCC5)cc(=O)[nH]4)c2O3)nc1 [Example 4-8-17, 6-(8-(((5-Methoxypyridin-2-yl)methyl)amino)phenoxathiin-4-yl)-4-morpholino pyridin-2(1H)-one] | 100 to 500 | –
9 | < 100 | Cc1ccc(C(Nc2ccc3c(c2)Sc2cccc(-c4cc(N5CCOCC5)cc(=O)[nH]4)c2S3)C2CN(C)CCO2)nc1 (single isomer, unassigned) [Example 1-52-2, 6-(7-(((4-methylmorpholin-2-yl)(5-methylpyridin-2-yl)methyl)amino)thianthren-1-yl)-4-morpholinopyridin-2(1H)-one] | – | < 100
10 | < 100 | Cc1cnc(C(CCN(C)C)Nc2ccc3c(c2)Sc2cccc(-c4cc(N5CCOCC5)cc(=O)[nH]4)c2S3)cn1 (single isomer, unassigned) [Example 1-22-12-1, 6-(7-((3-(dimethylamino)-1-(5-methylpyrazin-2-yl)propyl)amino)thianthren-1-yl)-4-morpholinopyridin-2(1H)-one] | 100 to 500 | –
